Each structure is given as a SMILES string.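 A five-concentration, 48-hour dose response in 96-well plates underlies each endpoint, interpolated linearly between surrounding concentrations. GI50 is the concentration that inhibits growth by half.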 Calls of active or inactive are those of the source. No stated cut-off is given here; in the data, active = GI50 up to about 1.1 µM and inactive = higher. Where a SMILES comes first, the peptide text is derived from it. The star is where a group is joined. Boc = CC(C)(C)OC(=O)*; Bn = c1ccc(C*)cc1 Where only a bound is given, the exact number is not on record here.

Among the test systems are Hs-578T; MDA-MB-435; RPMI-8226; MOLT-4; HCT-116; KM12; SF-539; LOX IMVI; MDA-N; BT-549; 786-0; SK-MEL-2; SK-MEL-5; SK-MEL-28; OVCAR-4; EKVX; SN12C; UACC-257; OVCAR-3; A498.
Common to all, as to test: growth of human tumour cells (NCI), 48 h

For `COC1(OC)CC(CO)(CNc2cc(Cl)nc(N)n2)C1`, the GI50 in the experiment on Hs-578T, in the experiment with MDA-MB-435, in the experiment on RPMI-8226, with MOLT-4, with HCT-116 and in the experiment on KM12 was > 100 µM (inactive) throughout. Further, the GI50 in the experiment with SF-539, in the experiment with LOX IMVI, with MDA-N, in the experiment with BT-549, with 786-0 and in the experiment on SK-MEL-2 was > 100 µM (inactive) in each case. Besides, the GI50 in the experiment with SK-MEL-5 was > 100 µM (inactive); with SK-MEL-28 it was > 100 µM (inactive); with OVCAR-4, > 100 µM (inactive); with EKVX, 39.7 µM (inactive); in the experiment with SN12C it was > 100 µM (inactive); with UACC-257, 39.1 µM (inactive). Further, in the experiment with OVCAR-3, the GI50 is > 100 µM (inactive).

Regarding `COc1cc2nc(-c3cccs3)nc(Nc3ccccc3C(=O)NN)c2cc1OC`, the GI50 with Hs-578T was > 100 µM (inactive); in the experiment on MDA-MB-435, 95.7 µM (inactive); in the experiment on RPMI-8226, > 100 µM (inactive); with MOLT-4, > 100 µM (inactive); in the experiment on HCT-116, > 100 µM (inactive); with KM12, > 100 µM (inactive). The GI50 is > 100 µM (inactive) in the experiment on SF-539; 51.5 µM (inactive) with LOX IMVI; > 100 µM (inactive) in the experiment on BT-549; 95.7 µM (inactive) with 786-0; > 100 µM (inactive) with SK-MEL-2; > 100 µM (inactive) in the experiment with SK-MEL-5. Also, the GI50 with SK-MEL-28 is 99.8 µM (inactive); in the experiment on OVCAR-4, 27.8 µM (inactive); in the experiment with A498, > 100 µM (inactive); in the experiment on EKVX it was > 100 µM (inactive); with SN12C it was > 100 µM (inactive); in the experiment with UACC-257, > 100 µM (inactive). Further, in the experiment on OVCAR-3, the GI50 is 57.5 µM (inactive).

Turning to `CN(C)CC1CCCCCC(Br)C1=O` (stereo not drawn), the GI50 in the experiment with Hs-578T was 17.1 µM (inactive); in the experiment with MDA-MB-435, 16 µM (inactive); with RPMI-8226, 0.61 µM (active); with MOLT-4 it was 0.946 µM (active); with HCT-116, 2.05 µM (inactive); in the experiment with KM12, 18.4 µM (inactive). Besides, the GI50 was 17.3 µM (inactive) with SF-539; 12.7 µM (inactive) in the experiment on LOX IMVI; 11.7 µM (inactive) in the experiment with BT-549; 2.25 µM (inactive) with 786-0; 20.7 µM (inactive) in the experiment with SK-MEL-2; 15.5 µM (inactive) in the experiment on SK-MEL-5. The GI50 is 15.9 µM (inactive) in the experiment on SK-MEL-28; 15 µM (inactive) in the experiment on OVCAR-4; 54.8 µM (inactive) with A498; 15.1 µM (inactive) in the experiment with EKVX; 16.8 µM (inactive) in the experiment with SN12C; 9.93 µM (inactive) in the experiment on UACC-257. Also, the GI50 in the experiment on OVCAR-3 is 7.38 µM (inactive).

Take `COC(=O)C1=C(C)NC(C)=C(C(=O)OC)C1c1cccc(/[N+]([O-])=C/c2ccccc2)c1`: the GI50 is 42.1 µM (inactive) with Hs-578T; 19.7 µM (inactive) with MDA-MB-435; 24.4 µM (inactive) with RPMI-8226; 23.2 µM (inactive) in the experiment with MOLT-4; 16.7 µM (inactive) in the experiment on HCT-116; > 100 µM (inactive) with KM12. Besides, the GI50 in the experiment with SF-539 was > 100 µM (inactive); with LOX IMVI, 33.7 µM (inactive); with MDA-N, 17.6 µM (inactive); in the experiment on BT-549, 16.3 µM (inactive); with 786-0 it was 17.7 µM (inactive); with SK-MEL-2, 75 µM (inactive). Also, the GI50 was > 100 µM (inactive) in the experiment with SK-MEL-5; 17.5 µM (inactive) in the experiment on SK-MEL-28; 16.5 µM (inactive) in the experiment on OVCAR-4; 72.8 µM (inactive) in the experiment with EKVX; > 10 µM (inactive) with SN12C; 19 µM (inactive) with UACC-257. The GI50 with OVCAR-3 was 17.4 µM (inactive).

For the compound `CCOC(=O)OC1C(Br)C2CCC1(C)C2(C)C` (stereo not drawn), the GI50 in the experiment with Hs-578T is 13.8 µM (inactive); with MDA-MB-435 it was 11.4 µM (inactive); in the experiment on RPMI-8226, 5.46 µM (inactive); with MOLT-4, 4.6 µM (inactive); in the experiment on HCT-116 it was 6.44 µM (inactive); in the experiment on KM12, 14 µM (inactive). Besides, the GI50 with SF-539 is 14.1 µM (inactive); with LOX IMVI it was 6.59 µM (inactive); in the experiment with MDA-N, 15 µM (inactive); in the experiment on BT-549, 17.2 µM (inactive); in the experiment with 786-0, 14.1 µM (inactive); in the experiment with SK-MEL-5 it was 14.5 µM (inactive). Also, the GI50 was 15.7 µM (inactive) in the experiment on SK-MEL-28; 11.7 µM (inactive) in the experiment with OVCAR-4; 15.5 µM (inactive) in the experiment with EKVX; 14.4 µM (inactive) with SN12C; 15.9 µM (inactive) with UACC-257; 14.7 µM (inactive) in the experiment on OVCAR-3.

For the compound `COC(=O)C(CC(C)C)NC(=O)C(C)NC(=O)C(Cc1ccc(OCc2ccccc2)cc1)NC(=O)C(COCc1ccccc1)NC(=O)OC(C)(C)C` (stereo not drawn) (Boc-S(Bn)Y(Bn)AL-OMe; configuration not given here), the GI50 with Hs-578T was 58.3 µM (inactive); with MDA-MB-435, > 100 µM (inactive); in the experiment on RPMI-8226 it was > 100 µM (inactive); with MOLT-4, 96.2 µM (inactive); in the experiment on HCT-116, > 100 µM (inactive); in the experiment on KM12 it was > 100 µM (inactive). For the same compound, the GI50 in the experiment on SF-539, with LOX IMVI, in the experiment on MDA-N, with BT-549, with 786-0 and in the experiment with SK-MEL-5 was > 100 µM (inactive) each time. Moreover, the GI50 was > 100 µM (inactive) in the experiment on SK-MEL-28; 4.3 µM (inactive) in the experiment on OVCAR-4; > 100 µM (inactive) in the experiment on EKVX; > 100 µM (inactive) in the experiment with SN12C; > 100 µM (inactive) in the experiment on OVCAR-3.

In the case of `O=[N+]([O-])c1cc2[nH]nnc2c2nonc12`, the GI50 in the experiment with Hs-578T was 17.4 µM (inactive); with MDA-MB-435, 13.1 µM (inactive); in the experiment with RPMI-8226, 24 µM (inactive); in the experiment with MOLT-4, 6.18 µM (inactive); in the experiment with HCT-116, 20.5 µM (inactive); in the experiment with KM12 it was 33 µM (inactive). The GI50 with SF-539 is 22.8 µM (inactive); with LOX IMVI, 20.1 µM (inactive); with MDA-N, 20.6 µM (inactive); in the experiment with BT-549, 11.1 µM (inactive); with 786-0 it was 38.5 µM (inactive); in the experiment with SK-MEL-2, 40.7 µM (inactive). In addition, the GI50 in the experiment with SK-MEL-5 is 11.9 µM (inactive); in the experiment with SK-MEL-28 it was 38.5 µM (inactive); with OVCAR-4, 30.1 µM (inactive); in the experiment on EKVX, 65.8 µM (inactive); with SN12C it was 41.5 µM (inactive); with UACC-257, 22.9 µM (inactive). The GI50 in the experiment with OVCAR-3 was 33.5 µM (inactive).

For the compound `COC(=O)[C@]1(C)CCC[C@]2(C)[C@@H](CCC(=O)C(C)C)[C@]3(C=O)O[C@@H]3C[C@H]21`, the GI50 with Hs-578T is 41.6 µM (inactive); in the experiment on MDA-MB-435, 28.2 µM (inactive); with MOLT-4, 29.9 µM (inactive); in the experiment on HCT-116 it was 21.7 µM (inactive); in the experiment on KM12, 34.3 µM (inactive); in the experiment with SF-539, 74.6 µM (inactive). Besides, the GI50 in the experiment with LOX IMVI is 24.7 µM (inactive); in the experiment with MDA-N, 23.6 µM (inactive); in the experiment with BT-549, 24.7 µM (inactive); in the experiment on 786-0, 32.4 µM (inactive); in the experiment on SK-MEL-2, 34.1 µM (inactive); in the experiment with SK-MEL-5, 31.1 µM (inactive). Moreover, the GI50 is > 100 µM (inactive) in the experiment on SK-MEL-28; 24.7 µM (inactive) in the experiment on OVCAR-4; 44.8 µM (inactive) in the experiment on EKVX; 30.6 µM (inactive) in the experiment on SN12C; 37.9 µM (inactive) in the experiment with UACC-257; 33.4 µM (inactive) in the experiment with OVCAR-3.
